The values below come from US8263590B2, “Pyrimidine derivatives” (priority 2003, dated 2012).

pIC50: −log10 of the molar value. Where two headings read alike, the source gives them in different places.

Test [1] deals with Mouse mammary carcinoma 4T1 cells. Briefly: Anchorage-independent tumor cell growth assay. Format: cell-based. On the procedure:
Cells are cultured for 2 h and inhibitors are added at various concentrations in a final concentration of 0.1% DMSO. After 48 h, cell growth is assayed with the cell counting kit-8 (Wako Pure Chemical), which uses a water soluble tetrazolium salt WST8. Twenty μL of the reagent is added into each well and cells are further cultured for 2 h. The optical density is measured at 450 nm.

Test [2] has as its target human FAK kinase domain (Homo sapiens, UniProt Q05397). Kind of test: FAK assay (FRET, Biot-Y397 peptide).
Method: All steps are performed in a 96-well black microtiter plate. […] The enzyme reaction is started by addition of 5 μL of 5 μM ATP in water and the mixture is incubated for 3 hours at 37° C. […] The results are shown as percent inhibition of enzyme activity. […] IC50 values are determined by non-linear curve fit analysis using the OriginPro 6.1 program (OriginLab).
The target in test [3] is FAK (Tyr397) (Mus musculus, UniProt P34152). Briefly: Phosphorylation levels of FAK at Tyr397 (sandwich ELISA, 4T1 cells).
Sequence of FAK (Tyr397) (P34152 whole entry): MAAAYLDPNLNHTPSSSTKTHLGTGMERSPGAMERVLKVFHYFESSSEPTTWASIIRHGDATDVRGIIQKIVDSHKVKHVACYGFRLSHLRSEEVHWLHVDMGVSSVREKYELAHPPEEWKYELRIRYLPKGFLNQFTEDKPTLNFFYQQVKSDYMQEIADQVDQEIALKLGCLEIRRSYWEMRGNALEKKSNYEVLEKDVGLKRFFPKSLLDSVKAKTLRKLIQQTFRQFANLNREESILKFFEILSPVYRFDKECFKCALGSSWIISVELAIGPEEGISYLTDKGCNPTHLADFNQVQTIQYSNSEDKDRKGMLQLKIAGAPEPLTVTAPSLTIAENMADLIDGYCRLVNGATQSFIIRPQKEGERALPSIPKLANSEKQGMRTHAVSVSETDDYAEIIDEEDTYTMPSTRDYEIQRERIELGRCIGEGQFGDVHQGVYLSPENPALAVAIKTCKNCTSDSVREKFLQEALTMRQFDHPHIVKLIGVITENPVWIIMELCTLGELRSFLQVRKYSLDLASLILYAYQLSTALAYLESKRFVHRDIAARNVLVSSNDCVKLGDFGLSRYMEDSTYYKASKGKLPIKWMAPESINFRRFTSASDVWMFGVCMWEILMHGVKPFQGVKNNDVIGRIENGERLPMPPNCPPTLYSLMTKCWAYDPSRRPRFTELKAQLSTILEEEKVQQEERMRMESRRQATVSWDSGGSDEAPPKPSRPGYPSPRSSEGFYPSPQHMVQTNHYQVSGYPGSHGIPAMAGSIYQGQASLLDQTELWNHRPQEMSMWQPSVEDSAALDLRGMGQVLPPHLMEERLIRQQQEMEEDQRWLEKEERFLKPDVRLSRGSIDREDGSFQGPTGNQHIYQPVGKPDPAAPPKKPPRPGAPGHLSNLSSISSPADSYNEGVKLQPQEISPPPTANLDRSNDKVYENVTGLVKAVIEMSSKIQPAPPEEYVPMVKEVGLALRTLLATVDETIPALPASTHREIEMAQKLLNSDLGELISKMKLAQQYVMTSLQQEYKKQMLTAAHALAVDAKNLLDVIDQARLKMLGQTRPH
Method: Phosphorylation levels of FAK at Tyr397 is quantified by the sandwich ELISA. Mouse mammary carcinoma 4T1 cells (1×10^5) are plated in wells of 96-well culture plates and incubated with or without various concentrations of inhibitors for 1 h in Dulbecco's modified eagle medium containing 0.5% BSA. The medium is removed and cells are lysed in 200 μL 50 mM Tris-HCl, pH 7.4, containing 1% NP-40, 0.25% sodium deoxycholate, 150 mM NaCl, 1 mM EDTA, 1 mM PMSF, 1 mM Na3VO4, 1 mM NaF, 1 μg/mL aprotinin, 1 μg/mL leupeptin and 1 μg/mL pepstatin. […] The concentration of compound causing 50% reduction of phosphorylation level of FAK is determined.
The target of test [4] is T1, human IGF-IR (Homo sapiens, UniProt P08069).
T1 construct: transfected with human IGF-IR cDNA (complete human IGF-IR cDNA); expressed in transfected cells; host or cells: NIH-3T3 mouse fibroblasts
T1 sequence (P08069 31-1367): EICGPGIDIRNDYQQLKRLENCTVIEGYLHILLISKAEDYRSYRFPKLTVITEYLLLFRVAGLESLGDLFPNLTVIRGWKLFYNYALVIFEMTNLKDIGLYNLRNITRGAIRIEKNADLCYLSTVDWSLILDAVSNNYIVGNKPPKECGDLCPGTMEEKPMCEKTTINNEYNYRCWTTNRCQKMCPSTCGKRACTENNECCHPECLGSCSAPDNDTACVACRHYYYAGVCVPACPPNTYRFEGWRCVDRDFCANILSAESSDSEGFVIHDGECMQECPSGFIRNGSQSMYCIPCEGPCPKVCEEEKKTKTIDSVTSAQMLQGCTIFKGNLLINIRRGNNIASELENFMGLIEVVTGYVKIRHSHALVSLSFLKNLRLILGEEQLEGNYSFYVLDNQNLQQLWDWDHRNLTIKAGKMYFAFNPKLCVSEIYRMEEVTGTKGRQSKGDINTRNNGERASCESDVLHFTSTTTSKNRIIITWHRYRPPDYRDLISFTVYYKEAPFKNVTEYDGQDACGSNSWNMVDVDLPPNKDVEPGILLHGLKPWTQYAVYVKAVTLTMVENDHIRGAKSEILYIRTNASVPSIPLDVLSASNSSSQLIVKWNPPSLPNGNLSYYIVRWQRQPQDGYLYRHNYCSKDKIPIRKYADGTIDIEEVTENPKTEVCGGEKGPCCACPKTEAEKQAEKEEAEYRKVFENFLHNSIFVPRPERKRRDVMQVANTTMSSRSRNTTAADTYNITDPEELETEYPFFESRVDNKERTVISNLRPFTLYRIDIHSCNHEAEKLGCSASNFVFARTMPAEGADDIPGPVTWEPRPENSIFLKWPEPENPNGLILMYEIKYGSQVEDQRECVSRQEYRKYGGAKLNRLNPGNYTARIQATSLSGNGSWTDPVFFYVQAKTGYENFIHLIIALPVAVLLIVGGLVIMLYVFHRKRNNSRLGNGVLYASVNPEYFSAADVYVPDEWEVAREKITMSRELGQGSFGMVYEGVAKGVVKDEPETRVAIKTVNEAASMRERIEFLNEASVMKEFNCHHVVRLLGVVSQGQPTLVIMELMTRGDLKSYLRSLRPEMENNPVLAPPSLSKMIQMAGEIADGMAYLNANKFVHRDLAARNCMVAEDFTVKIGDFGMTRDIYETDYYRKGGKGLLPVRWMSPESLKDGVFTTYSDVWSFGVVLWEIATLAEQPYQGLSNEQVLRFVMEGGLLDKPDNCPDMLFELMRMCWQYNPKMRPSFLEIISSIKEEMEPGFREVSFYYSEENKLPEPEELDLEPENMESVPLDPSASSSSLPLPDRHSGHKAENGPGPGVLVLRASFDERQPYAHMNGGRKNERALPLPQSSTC
Briefly: IGF-I induced IGF-IR autophosphorylation, cellular Capture ELISA. Format: cell-based. As to conditions: read-out: IGF-1R IC50. On the procedure:
In this assay the activity of the compounds of the invention against Insulin-like growth factor I (IGF-I) induced autophosphorylation of the IGF-IR is determined.
The cells which overexpress human IGF-IR are cultured in Dulbecco's minimal essential (DMEM) medium, containing 10% Fetal Calf Serum (FCS). […] On day 3 the medium is discarded and the cells are incubated for 24 h in minimal medium (DMEM, containing 0.5% FCS).
The medium is discarded and the cells are washed twice with PBS/O (=Phosphate-Buffered Saline without CaCl2) and lysed for 15 min on ice with 50 μl/well RIPA-buffer [50 mM Tris.HCl, pH=7.2, 120 mM NaCl, 1 mM EDTA, 6 mM EGTA, 1% NP-40, 20 mM NaF, 1 mM benzamidine, 15 mM sodium pyrophosphate, 1 mM Phenyl methyl sulphonyl fluoride (PMSF) and 0.5 mM Na3VO4] and shaken for 10 min using a 96-well plate shaker (=cellular extracts).
The plates are washed twice with 0.05% (v/v) Tween-20 in Phosphate-Buffered Saline (PBS) and once with nanopure H2O. […] After blocking, the plates are washed once with nanopure H2O.
After incubating the extracts and the secondary antibody for 2 h at 4° C., the extracts are discarded, the plates are washed twice with 0.05% (v/v) Tween-20 in PBS and once with nanopure water.
90 μl/well AP substrate (CDP-Star; obtained from Tropix; Cat. No.: MS100RY) are then added and the plates are incubated for 45 min at RT in the dark, followed by measuring AP activity in a Packard Top Count Microplate Scintillation Counter. The IC50 values for the compounds of formula I are calculated via linear regression analysis using the GraphPad Instat program (GraphPad Software, USA).

Test [5] deals with Jurkat T human leukemic cell line. Briefly: In vitro T cell migration assay. Format: cell-based. On the procedure:
Inhibitory activities of FAK inhibitors on the mobility of immune cells are secured by the following in vitro study. […] Cell mobility is appraised through the number of cells migrated into lower chamber by labeling with calcein-AM (Molecular Probes, Netherlands) at 8 μg/ml in HBSS for 1 h.

Sequence of human FAK kinase domain (Q05397 384-706): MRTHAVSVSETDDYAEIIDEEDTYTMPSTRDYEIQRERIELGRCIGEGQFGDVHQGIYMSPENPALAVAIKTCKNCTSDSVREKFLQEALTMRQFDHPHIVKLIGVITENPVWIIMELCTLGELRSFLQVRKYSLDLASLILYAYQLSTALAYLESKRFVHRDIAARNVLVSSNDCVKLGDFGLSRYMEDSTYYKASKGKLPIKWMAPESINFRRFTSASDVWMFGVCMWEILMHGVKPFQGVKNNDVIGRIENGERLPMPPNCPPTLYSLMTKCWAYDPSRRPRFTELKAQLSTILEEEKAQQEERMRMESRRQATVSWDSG

The compound `CNS(=O)(=O)c1ccccc1Nc1nc(Nc2cccc3c2CCCC3)ncc1Br` [Example 3-31] showed a pIC50 in test [1] of 5.30.
Regarding `CNS(=O)(=O)c1ccccc1Nc1nc(Nc2ccc(OC3CCN(C)C3)cc2OC)ncc1Br` (centres unmarked) [Example 3-82], the pIC50 in test [1] (Mus musculus, 4T1) is 7.15; in test [2], 8.32; in test [3], 6.70.
Regarding `CNS(=O)(=O)c1ccccc1Nc1nc(Nc2ccc(-n3ccnc3C)cc2OC)ncc1Br` [Example 3-83], the pIC50 in test [1] was 6.49.
The same measure, in the same setting: the same measure for `CNC(=O)c1ccccc1Nc1nc(Nc2cc(F)ccc2OC)ncc1Br` [Example 8-3]: 6.00.
`CCNC(=O)c1ccccc1Nc1nc(Nc2ccc(N3CCC(N4CCCCC4)CC3)cc2OC)ncc1Cl` [Example 9-3]: the pIC50 in test [1] (Mus musculus, 4T1) was 6.43; in test [2] it was 7.74; in test [3] it was 7.00.
For `CNC(=O)c1cc(N2CCCC2)ccc1Nc1nc(Nc2ccc(N3CCOCC3)cc2OC)ncc1Cl` [Example 15-3] the same measures were 5.78, 7.36 and 5.70.
`COc1cc(N2CCN(C)CC2)ccc1Nc1ncc(Cl)c(Nc2ccccc2S(=O)(=O)NC(C)C)n1` [Example 19-5]: the pIC50 in test [1] (Mus musculus, 4T1) is 6.17; in test [4], 6.33; in test [5], 7.15.
`CNS(=O)(=O)c1ccccc1Nc1nc(Nc2ccc(N3CCC(N4CCCCC4)CC3)cc2OC)ncc1Cl` [Example 20-8]: the pIC50 in test [1] (Mus musculus, 4T1) is 7.30; in test [2], 8.17; in test [3], 6.77; in test [5] it was 6.54.
`CNS(=O)(=O)c1ccccc1Nc1nc(Nc2ccc(OC3CCN(C)C3)cc2OC)ncc1Cl` (centres unmarked) [Example 20-29]: the pIC50 was 7.30 in test [1] (Mus musculus, 4T1); 8.21 in test [2]; 6.51 in test [4]; 6.70 in test [3].
In the case of `CCC(C)NS(=O)(=O)c1ccccc1Nc1nc(Nc2ccc(N3CCN(C)CC3)cc2OC)ncc1Cl` (centres unmarked) [Example 21-1], the negative-log IC50 (pIC50) is 6.72 in test [1] (Mus musculus, 4T1) and 6.33 in test [4].
Regarding `CCC(CC)NS(=O)(=O)c1ccccc1Nc1nc(Nc2ccc(OC3CCN(C)CC3)cc2OC)ncc1Cl` [Example 23-1], the pIC50 in test [5] is 6.20.
With `CCC(CC)NS(=O)(=O)c1ccccc1Nc1nc(Nc2ccc(OC3CCN(C)C3)cc2OC)ncc1Cl` (centres unmarked) [Example 23-7], the pIC50 in test [1] (Mus musculus, 4T1) is 6.08; in test [2], 8.68; in test [3], 5.52.
In test [5], `CCCS(=O)(=O)c1ccccc1Nc1nc(Nc2ccc(N3CCN(C(C)=O)CC3)cc2OC)ncc1Cl` [Example 26-2] showed a pIC50 of 7.05.
With `CCCS(=O)(=O)c1ccccc1Nc1nc(Nc2ccc(N3CCC(O)CC3)cc2OC)ncc1Cl` [Example 26-4], the pIC50 in test [5] is 6.54.
On the same count and under the same terms, the same measure for `CCCS(=O)(=O)c1ccccc1Nc1nc(Nc2ccc(N3CCN(C(C)=O)C(C)(C)C3)cc2OC)ncc1Cl` [Example 26-11]: 6.30; for `CCCS(=O)(=O)c1ccccc1Nc1nc(Nc2cc(N3CCOCC3)ccc2OC)ncc1Cl` [Example 26-17]: 6.59.
Consider `CCCS(=O)(=O)c1ccccc1Nc1nc(Nc2ccc(C(=O)N3CCOCC3)cc2OC)ncc1Cl` [Example 26-20], for which the values for the pIC50 in test [2], in test [4] and in test [3] were 8.00, 6.31 and 6.85, respectively.
`CCCS(=O)(=O)c1ccccc1Nc1nc(Nc2ccc(N3CCN(C(C)C)CC3)cc2OC)ncc1Cl` [Example 26-23] showed a pIC50 in test [1] of 7.05.
Same read-out and setting: the same measure for `Cc1cc(N2CCOCC2)ccc1Nc1ncc(Cl)c(Nc2ccccc2S(=O)(=O)C(C)C)n1` [Example 28-6]: 6.25.
Same read-out and setting: the same measure for `CCN1CCN(c2ccc(Nc3ncc(Cl)c(Nc4ccccc4S(=O)(=O)C(C)C)n3)c(OC)c2)CC1` [Example 28-12]: 6.37.
With `COc1cc(N2CCC(N3CCOCC3)CC2)ccc1Nc1ncc(Cl)c(Nc2ccccc2S(=O)(=O)C(C)C)n1` [Example 28-13], the pIC50 in test [5] is 6.54.
On the same count and under the same terms, the same measure for `COc1cc(N2CCC(O)CC2)ccc1Nc1ncc(Cl)c(Nc2ccccc2S(=O)(=O)C(C)C)n1` [Example 28-16]: 6.22.
In the case of `COc1cc(OC2CCN(C)CC2)ccc1Nc1ncc(Cl)c(Nc2ccccc2S(=O)(=O)C(C)C)n1` [Example 28-19], the pIC50 in test [1] (Mus musculus, 4T1) was 6.85; in test [2] it was 8.43; in test [3], 6.30.
`COc1cc(N2CCC[C@H](C(N)=O)C2)ccc1Nc1ncc(Cl)c(Nc2ccccc2S(=O)(=O)C(C)C)n1` [Example 28-27] showed a pIC50 in test [5] of 6.30.
On the same count and under the same terms, the same measure for `COc1cc(N2CCC[C@@H](C(N)=O)C2)ccc1Nc1ncc(Cl)c(Nc2ccccc2S(=O)(=O)C(C)C)n1` [Example 28-28]: 6.00.
For `CC(C)S(=O)(=O)c1ccccc1Nc1nc(Nc2cccc3c2OCC3)ncc1Cl` [Example 28-31], the pIC50 in test [1] is 5.97.
